Assay results as given in publication PMC3873281, “Discovery and Preclinical Characterization of Novel Small Molecule TRK and ROS1 Tyrosine Kinase Inhibitors for the Treatment of Cancer and Inflammation” (PLoS ONE, 2013).
Where two headings read alike, the source gives them in different places.

Tests used:
[1] = system: NIH3T3:FIG-ROS1 (S) cells; assay: NIH3T3:FIG-ROS1 (S) cell proliferation, SRB assay; assay type: cell-based
Description: (§1) Adherent cells were plated at 10,000 cells per well in 96-well plates in respective medium. […] For cell cycle analysis, cells were plated in 6 well plates and treated for the indicated time points. Cells were fixed, stained with propidium iodide, and distribution in different phases of cell cycle was evaluated using flow cytometry.
(§2) Protein was extracted and immunoblotted with phospho-ROS1 and total ROS1 antibodies. C. […] Ba/F3 cells stably transfected with vector or FIG-ROS1 were plated in equal numbers and growth of the cells after 3 days was measured by SRB assay (F).

HCC78 lung cancer cells = assay: HCC78 lung carcinoma cell growth, SRB assay; assay type: cell-based; details: Homo sapiens, HCC78, 144 h, read-out: IC50, proliferation of HCC78 cells
Description: as §1, §2

FIG-ROS1 = assay: Phosphorylation of ROS1 fused to FIG in NIH3T3 cells, Western blotting; assay type: cell-based; details: 3 days
Description: as §2

HCC78 cells = assay: Cell cycle analysis of HCC78 cells, flow cytometry; assay type: cell-based; details: 1 µM
Description: as §1, §2

[2] = system: NIH3T3:FIG-ROS1 (S) xenograft
Description: Xenograft experiments were performed in nude mice as previously described. Briefly, a mixture of cells suspended in 0.0375 mL RPMI+10% FBS and 0.0625 mL Matrigel was injected s.c. into the hind left flank of each mouse.
Tumor volumes (A) and body weight (C) were measured biweekly. After sacrifice, tumor weights (B) were recorded and the amount of drug in serum and tumors were quantified using LC-MS/MS (D). *-significant at p<0.01; **-significant at p<0.001.

MMP-3 = assay: PMA- or NGF-induced MMP-3 expression in PC12 cells, realtime PCR; assay type: cell-based
Description: RNA was isolated using the Cells-to-Ct kit and realtime PCR was performed using TaqMan primers and probes on the ABI 7900 (Life Technologies). cDNA array experiments were conducted using TaqMan primers and probes on the ABI 7900 PCR machine.
Figure 3 GTx-186 inhibits inflammation in vitro. Cells were serum starved for 2 days, pre-treated with indicated concentrations of GTx-186 for 30 min and treated with growth factors or cytokines for 12–16 hrs. RNA was extracted, cDNA synthesized, and expression of inflammatory genes were measured by realtime PCR using Taqman primer and probes. All experiments were performed in triplicate and repeated at least three times.

[3] = system: croton oil-induced dermatitis; assay: Croton oil-induced atopic dermatitis; details: s.c., twice, 16 hrs and 2 hrs before croton oil
[4] = system: carrageenan-induced air-pouch inflammation; assay: Carrageenan-induced air pouch inflammation model; assay type: in vivo, Sprague Dawley rats; details: GTx-186 40 mg/kg; indomethacin 30 mg/kg s.c.
Description: Cytokine arrays were obtained from Ray Biotech (Norcross, GA) and arrays were processed according to manufacturer’s instructions. Briefly, arrays were incubated overnight with equal volume of air pouch exudates, washed, and incubated with secondary antibodies before developing using enhanced chemiluminescence.
Air was injected in the flanks of Sprague Dawley rats four days (20 mL) and two days (10 mL) before injection of carrageenan (1 mL of 2% carrageenan) in the pouch. Six hours after carrageenan administration, animals were sacrificed, 5 mL saline was injected into the pouch, pouch exudates were collected and the number of leukocytes and macrophages infiltrated into the pouch were counted under a microscope.
Figure 5 GTx-186 inhibits carrageenan-induced air-pouch inflammation in rats. A–C. A pouch was created subcutaneously in one flank of rats (n = 3) by injecting 20 ml air four days before and 10 ml air two days before treatment. […] Six hours after carrageenan administration, the animals were sacrificed, 5 ml saline was injected into pouch to flush the pouch fluid and the number of leukocytes and macrophages infiltrated into the pouch were counted under a microscope. TNF-α was measured using an ELISA in the pouch exudates from the experiment in panel B. (C). D. Effect of GTx-186 on inflammatory cytokines in carrageenan-induced air-pouch inflammation was measured in the pouch exudates using a cytokine array. Key cytokines were quantified and expressed as bar graphs on the right. […] 186-GTx-186; Indom-Indomethacin; Dex-Dexamethasone; TNF-Tumor Necrosis Factor; IL-Interleukin; CINC-Cytokine-Induced Neutrophil-Chemoattractant protein.

[5] = daily, GTx-186 20 mg/kg/day i.v., crizotinib 75 mg/kg p.o.

C[C@@H](Oc1cc(-c2cnn(C3CCNCC3)c2)cnc1N)c1c(Cl)ccc(F)c1Cl [crizotinib]
IC50 ([1]; 72 h, read-out: IC50, proliferation of NIH3T3:FIG-ROS1 (S), 3 days): 24 nM
IC50 ([1]; read-out: IC50, proliferation of NIH3T3:FIG-ROS1 (S), 3 days): 26 nM
IC50 (HCC78 lung cancer cells): 495 nM
phosphorylation of ROS1 fused to FIG (FIG-ROS1): extremely effective in inhibiting
time of treatment at which cells were arrested in G0/G1 phase (HCC78 cells): 6 days
tumor growth inhibition ([2]; crizotinib 75 mg/kg p.o. daily): 90%
tumor growth (tumor volume) [2, 5]: significantly reduced
tumor weight [2, 5]: significantly reduced
body weight, visible toxicity ([2]; mouse, in vivo): without affecting body weight

C[C@@H]1C[C@H]2[C@@H]3CCC4=CC(=O)C=C[C@]4(C)[C@@]3(F)[C@@H](O)C[C@]2(C)[C@@]1(O)C(=O)CO [dexamethasone]
MMP-3 expression induced by PMA (MMP-3): inhibited
expression of inflammatory pathway genes, including NGF, in ear punches [3]: markedly inhibited

COc1ccc2c(c1)c(CC(=O)O)c(C)n2C(=O)c1ccc(Cl)cc1 [indomethacin]
TNF-α levels in pouch exudates after carrageenan (ELISA, cytokine array) [4]: effectively inhibited
carrageenan-induced CINC-1, CINC-2, IL-6, and LIX in pouch exudates (cytokine array) [4]: only GTx-186 inhibited
carrageenan-induced CINC-3, TIMP-1, PDGFa, MMP-8, and MCP-1 in pouch exudates (cytokine array) [4]: neither GTx-186 nor indomethacin inhibited
carrageenan-induced TNF-α, IL-1β, fractalkine, IL-13, and leptin in pouch exudates (cytokine array) [4]: inhibited
